Among the data in US20260200897A1, “4-((5-(3-(4-(PYRIDIN-2-YL)CYCLOPENTYL)-1H-PYRAZOL-3-YL)AMINO)-BENZENESULFONAMIDE DERIVATIVES AND SIMILAR COMPOUNDS AS CDK INHIBITORS FOR THE TREATMENT OF CANCER” (BeOne Medicines I GmbH, priority 2023, published 2026) are IC50 values, retold here.

One assay concerns the target CDK1/Cyclin B1 (Homo sapiens, UniProt P06493). Kind of assay: CDK1/Cyclin B1 TR-FRET biochemical assay, 0.015 mM ATP. Conditions: 0.15 μM Rb (Ser780)-biotin substrate, 120 min reaction, Table 1. As for the experimental part:
(§1) Compounds disclosed herein were tested for inhibition of CDK2/Cyclin E1 or CDK1/Cyclin B1 kinase in an assay based on the time-resolved fluorescence-resonance energy transfer (TR-FRET) methodology. The assay was carried out in 384-well low volume black plates in a reaction mixture containing CDK2/Cyclin E1 or CDK1/Cyclin B1, 0.060 mM ATP for CDK2/Cyclin E1 or 0.015 mM ATP for CDK1/Cyclin B1, 0.15 μM Rb (Ser780)-biotin substrate and 0-10 μM compound in buffer containing 50 mM HEPES pH7.0, 0.02% NaN3, 0.01% BSA, 0.1 mM Orthovanadate, 50 mM MgCl2, 1 mM DTT and 0.005% Tween-20. The kinase was incubated with compound for 60 minutes at room temperature and the reaction was initiated by the addition of ATP and Rb (Ser780)-biotin substrate. After reaction at room temperature for 120 minutes, an equal volume of stop/detection solution was added according to the manufacture's instruction (Cisbio Bioassays). The stop/detection solution contained Streptavidin-XL665 and Anti-pRb (Ser780) mAb-Eu Cryptate in Detection buffer (Cisbio Bioassays). Plates were incubated at room temperature for 60 minutes, and the TR-FRET signals (ex337 nm, em665 nm/620 nm) were recorded on a PHERAstar FSX plate reader (BMG Labtech). The inhibition percentage of CDK2/Cyclin E1 or CDK1/Cyclin B1 kinase activity in presence of increasing concentrations of compounds was calculated based on the ratio of fluorescence at 665 nm to that at 620 nm. The IC50 for each compound was derived from fitting the data to the four-parameter logistic equation by Dotmatics.
In general terms: TR-FRET usually uses a lanthanide donor and a delayed reading to cut background.

The target of the next assay is CDK2/Cyclin E1 (Homo sapiens, UniProt P24941). In words: CDK2/Cyclin E1 TR-FRET biochemical assay, 0.060 mM ATP. The conditions noted are these: 0.15 μM Rb (Ser780)-biotin substrate, 120 min reaction, Table 1. Here is the method:
as §1

Sequence of CDK1/Cyclin B1 (P06493 whole entry): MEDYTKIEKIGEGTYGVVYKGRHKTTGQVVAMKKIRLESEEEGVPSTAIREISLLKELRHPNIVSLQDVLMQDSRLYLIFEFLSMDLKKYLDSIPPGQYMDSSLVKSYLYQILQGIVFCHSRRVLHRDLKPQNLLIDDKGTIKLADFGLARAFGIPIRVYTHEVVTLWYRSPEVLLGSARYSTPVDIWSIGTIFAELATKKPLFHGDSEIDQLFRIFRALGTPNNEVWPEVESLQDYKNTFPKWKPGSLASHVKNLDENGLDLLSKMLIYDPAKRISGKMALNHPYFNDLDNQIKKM
Sequence of CDK1/Cyclin B1 (P14635 whole entry partner): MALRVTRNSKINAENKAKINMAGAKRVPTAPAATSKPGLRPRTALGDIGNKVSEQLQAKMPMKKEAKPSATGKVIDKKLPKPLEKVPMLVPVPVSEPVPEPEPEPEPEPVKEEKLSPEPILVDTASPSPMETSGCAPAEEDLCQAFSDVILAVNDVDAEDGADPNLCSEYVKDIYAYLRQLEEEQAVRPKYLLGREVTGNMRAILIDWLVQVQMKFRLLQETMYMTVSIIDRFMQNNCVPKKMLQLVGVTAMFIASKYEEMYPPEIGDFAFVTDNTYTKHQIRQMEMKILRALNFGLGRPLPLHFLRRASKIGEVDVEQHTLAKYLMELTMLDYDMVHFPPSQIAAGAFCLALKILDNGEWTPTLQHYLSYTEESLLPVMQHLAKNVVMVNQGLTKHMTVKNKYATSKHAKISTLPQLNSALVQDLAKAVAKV

As a reminder, the IC50 is the concentration needed to halve the response being measured. Turning to `CC(C)c1ccnn([C@H]2CC[C@@H](c3cc(Nc4ccc5c(c4F)CNS5(=O)=O)n[nH]3)C2)c1=O` (relative stereo) [Example 26, cis-2-(3-(3-((4-fluoro-1,1-dioxido-2,3-dihydrobenzo[d]isothiazol-5-yl)amino)-1H-pyrazol-5-yl)cyclopentyl)-4-isopropylpyridazin-3 (2H)-one], the figures for the IC50 on CDK1/Cyclin B1 and at CDK2/Cyclin E1 were 1690 nM and 140 nM, respectively.
As for `CC(C)c1ccnnc1O[C@@H]1CC[C@H](c2cc(Nc3ccc4c(c3F)CNS4(=O)=O)n[nH]2)C1` (relative stereo) [Example 27, cis-4-fluoro-5-((5-(3-((4-isopropylpyridazin-3-yl)oxy)cyclopentyl)-1H-pyrazol-3-yl)amino)-2,3-dihydrobenzo[d]isothiazole 1,1-dioxide], the figures for the IC50 against CDK1/Cyclin B1 and against CDK2/Cyclin E1 were 3.7 nM and 0.7 nM, respectively.
On to `O=c1c(C2CC2)ccnn1[C@H]1CC[C@@H](c2cc(Nc3ccc4c(c3F)CNS4(=O)=O)n[nH]2)C1` (relative stereo) [Example 28, cis-4-cyclopropyl-2-(3-(3-((4-fluoro-1,1-dioxido-2,3-dihydrobenzo[d]isothiazol-5-yl)amino)-1H-pyrazol-5-yl)cyclopentyl)pyridazin-3 (2H)-one], for which the values for the IC50 against CDK1/Cyclin B1 and against CDK2/Cyclin E1 were 1240 nM and 130 nM, respectively.
In the case of `O=S1(=O)NCc2c1ccc(Nc1cc([C@H]3CC[C@@H](Oc4nnccc4C4CC4)C3)[nH]n1)c2F` (relative stereo) [Example 29, cis-5-((5-(3-((4-cyclopropylpyridazin-3-yl)oxy)cyclopentyl)-1H-pyrazol-3-yl)amino)-4-fluoro-2,3-dihydrobenzo[d]isothiazole 1,1-dioxide], the IC50 on CDK1/Cyclin B1 was 35 nM; against CDK2/Cyclin E1, 2.9 nM.
For `O=c1c(-c2ccccc2)ccnn1[C@H]1CC[C@@H](c2cc(Nc3ccc4c(c3F)CNS4(=O)=O)n[nH]2)C1` (relative stereo) [Example 30, cis-2-(3-(3-((4-fluoro-1,1-dioxido-2,3-dihydrobenzo[d]isothiazol-5-yl)amino)-1H-pyrazol-5-yl)cyclopentyl)-4-phenylpyridazin-3 (2H)-one], the results for the concentration for half-maximal inhibition (IC50) against CDK1/Cyclin B1 and against CDK2/Cyclin E1 were over 10000 nM and 2080 nM, respectively.
On the same counts, the results for `O=S1(=O)NCc2c1ccc(Nc1cc([C@H]3CC[C@@H](Oc4nnccc4-c4ccccc4)C3)[nH]n1)c2F` (relative stereo) [Example 31, cis-4-fluoro-5-((5-(3-((4-phenylpyridazin-3-yl)oxy)cyclopentyl)-1H-pyrazol-3-yl)amino)-2,3-dihydrobenzo[d]isothiazole 1,1-dioxide] are 73 nM and 8.5 nM.
As for `C=C(C)c1cnn([C@H]2CC[C@@H](c3cc(Nc4ccc5c(c4F)CNS5(=O)=O)n[nH]3)C2)c(=O)c1` (relative stereo) [Example 32, cis-2-(3-(3-((4-fluoro-1,1-dioxido-2,3-dihydrobenzo[d]isothiazol-5-yl)amino)-1H-pyrazol-5-yl)cyclopentyl)-5-(prop-1-en-2-yl)pyridazin-3 (2H)-one], the figures for the IC50 against CDK1/Cyclin B1 and against CDK2/Cyclin E1 were 3570 nM and 48 nM, respectively.
As to `CC(C)c1cnn([C@H]2CC[C@@H](c3cc(Nc4ccc5c(c4F)CNS5(=O)=O)n[nH]3)C2)c(=O)c1` (relative stereo) [Example 33, cis-2-(3-(3-((4-fluoro-1,1-dioxido-2,3-dihydrobenzo[d]isothiazol-5-yl)amino)-1H-pyrazol-5-yl)cyclopentyl)-5-isopropylpyridazin-3 (2H)-one], the IC50 at CDK1/Cyclin B1 is 703 nM; at CDK2/Cyclin E1, 7.5 nM.
On the same counts, the results for `O=c1c2ccncc2cnn1[C@H]1CC[C@@H](c2cc(Nc3ccc4c(c3F)CNS4(=O)=O)n[nH]2)C1` (relative stereo) [Example 34, cis-2-(3-(3-((4-fluoro-1,1-dioxido-2,3-dihydrobenzo[d]isothiazol-5-yl)amino)-1H-pyrazol-5-yl)cyclopentyl)pyrido[3,4-d]pyridazin-1 (2H)-one] are 1550 nM and 63 nM.
In the same order, the values of `O=S1(=O)NCc2c1ccc(Nc1cc([C@H]3CC[C@@H](Oc4nnccc4C4CCC4)C3)[nH]n1)c2F` (relative stereo) [Example 35, cis-5-((5-(3-((4-cyclobutylpyridazin-3-yl)oxy)cyclopentyl)-1H-pyrazol-3-yl)amino)-4-fluoro-2,3-dihydrobenzo[d]isothiazole 1,1-dioxide] are 35 nM and 2.6 nM.
On to `O=S1(=O)NCc2c1ccc(Nc1cc([C@H]3CC[C@@H](Oc4cccnc4)C3)[nH]n1)c2F` (relative stereo) [Example 39, cis-4-fluoro-5-((5-(3-(pyridin-3-yloxy)cyclopentyl)-1H-pyrazol-3-yl)amino)-2,3-dihydrobenzo[d]isothiazole 1,1-dioxide], for which the IC50 on CDK1/Cyclin B1 was 2330 nM; at CDK2/Cyclin E1, 55 nM.
Take `Cc1ncccc1O[C@@H]1CC[C@H](c2cc(Nc3ccc4c(c3F)CNS4(=O)=O)n[nH]2)C1` (relative stereo) [Example 40, cis-4-fluoro-5-((5-(3-((2-methylpyridin-3-yl)oxy)cyclopentyl)-1H-pyrazol-3-yl)amino)-2,3-dihydrobenzo[d]isothiazole 1,1-dioxide]: the results for the IC50 on CDK1/Cyclin B1 and against CDK2/Cyclin E1 were 552 nM and 19 nM, respectively.
On the same counts, the results for `O=S1(=O)NCc2c1ccc(Nc1cc([C@H]3CC[C@@H](Oc4cnccc4C4CC4)C3)[nH]n1)c2F` (relative stereo) [Example 41, cis-5-((5-(3-((4-cyclopropylpyridin-3-yl)oxy)cyclopentyl)-1H-pyrazol-3-yl)amino)-4-fluoro-2,3-dihydrobenzo[d]isothiazole 1,1-dioxide] are 474 nM and 33 nM.
`Cc1ccncc1O[C@@H]1CC[C@H](c2cc(Nc3ccc4c(c3F)CNS4(=O)=O)n[nH]2)C1` (relative stereo) [Example 42, cis-4-fluoro-5-((5-(3-((4-methylpyridin-3-yl)oxy)cyclopentyl)-1H-pyrazol-3-yl)amino)-2,3-dihydrobenzo[d]isothiazole 1,1-dioxide]: the IC50 against CDK1/Cyclin B1 is 531 nM; at CDK2/Cyclin E1, 171 nM.
Turning to `C=C(C)c1ccncc1O[C@@H]1CC[C@H](c2cc(Nc3ccc4c(c3F)CNS4(=O)=O)n[nH]2)C1` (relative stereo) [Example 43, cis-4-fluoro-5-((5-(3-((4-(prop-1-en-2-yl)pyridin-3-yl)oxy)cyclopentyl)-1H-pyrazol-3-yl)amino)-2,3-dihydrobenzo[d]isothiazole 1,1-dioxide], the IC50 is 58 nM at CDK1/Cyclin B1 and 4.3 nM at CDK2/Cyclin E1.
On to `CC(C)c1cncc(O[C@@H]2CC[C@H](c3cc(Nc4ccc5c(c4F)CNS5(=O)=O)n[nH]3)C2)c1` (relative stereo) [Example 44, cis-4-fluoro-5-((5-(3-((5-isopropylpyridin-3-yl)oxy)cyclopentyl)-1H-pyrazol-3-yl)amino)-2,3-dihydrobenzo[d]isothiazole 1,1-dioxide], for which the IC50 against CDK1/Cyclin B1 was determined as 8340 nM; against CDK2/Cyclin E1, 1400 nM.
With `CC(C)(C)c1ncccc1O[C@@H]1CC[C@H](c2cc(Nc3ccc4c(c3F)CNS4(=O)=O)n[nH]2)C1` (relative stereo) [Example 45, cis-5-((5-(3-((2-(tert-butyl)pyridin-3-yl)oxy)cyclopentyl)-1H-pyrazol-3-yl)amino)-4-fluoro-2,3-dihydrobenzo[d]isothiazole 1,1-dioxide], the values for the IC50 against CDK1/Cyclin B1 and against CDK2/Cyclin E1 were 7120 nM and 764 nM, respectively.
For the compound `O=S1(=O)NCc2c1ccc(Nc1cc([C@H]3CC[C@@H](Oc4ccccn4)C3)[nH]n1)c2F` (relative stereo) [Example 46, cis-4-fluoro-5-((5-(3-(pyridin-2-yloxy)cyclopentyl)-1H-pyrazol-3-yl)amino)-2,3-dihydrobenzo[d]isothiazole 1,1-dioxide], the IC50 against CDK1/Cyclin B1 was 7450 nM; at CDK2/Cyclin E1 it was 419 nM.
Turning to `CC(C)(C)c1ccnc(O[C@@H]2CC[C@H](c3cc(Nc4ccc5c(c4F)CNS5(=O)=O)n[nH]3)C2)c1` (relative stereo) [Example 47, cis-5-((5-(3-((4-(tert-butyl)pyridin-2-yl)oxy)cyclopentyl)-1H-pyrazol-3-yl)amino)-4-fluoro-2,3-dihydrobenzo[d]isothiazole 1,1-dioxide], the IC50 was over 10000 nM against CDK1/Cyclin B1 and 3440 nM on CDK2/Cyclin E1.
For the compound `O=S1(=O)NCc2c1ccc(Nc1cc([C@H]3CC[C@@H](Oc4ccon4)C3)[nH]n1)c2F` (relative stereo) [Example 48, cis-4-fluoro-5-((5-(3-(isoxazol-3-yloxy)cyclopentyl)-1H-pyrazol-3-yl)amino)-2,3-dihydrobenzo[d]isothiazole 1,1-dioxide], the results for the IC50 on CDK1/Cyclin B1 and against CDK2/Cyclin E1 were 425 nM and 38 nM, respectively.
In the same order, the values of `O=c1ccon1[C@H]1CC[C@@H](c2cc(Nc3ccc4c(c3F)CNS4(=O)=O)n[nH]2)C1` (relative stereo) [Example 49, cis-2-(3-(3-((4-fluoro-1,1-dioxido-2,3-dihydrobenzo[d]isothiazol-5-yl)amino)-1H-pyrazol-5-yl)cyclopentyl)isoxazol-3 (2H)-one] are 2560 nM and 478 nM.
